Measured values from ChEMBL document CHEMBL1201862, “PubChem BioAssay data set” (2004).
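Where inhibition never reached the appropriate level, the endpoint shown equals the highest concentration tested. Otherwise, values were interpolated linearly from a five-concentration, 48-hour dose response in 96-well plates. GI50 = concentration required for 50% inhibition of growth.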 Activity calls are given as the source filed them. Cut-off read from the data, not from the text of the source: active = GI50 up to about 1.1 µM and inactive = higher.

Key:
Assay in all cases: inhibition of tumour cell growth, NCI panel, 48 h
SNB-75 = tested on: SNB-75
SK-MEL-28 = tested on: SK-MEL-28
SR = tested on: SR
DU-145 = tested on: DU-145
HT-29 = tested on: HT-29
MDA-MB-231 = tested on: MDA-MB-231
NCI-H460 = tested on: NCI-H460
Hs-578T = tested on: Hs-578T
K562 = tested on: K562
RXF 393 = tested on: RXF 393
PC-3 = tested on: PC-3
MDA-MB-435 = tested on: MDA-MB-435
LOX IMVI = tested on: LOX IMVI
SF-295 = tested on: SF-295
MOLT-4 = tested on: MOLT-4
HCC 2998 = tested on: HCC 2998
U-251 = tested on: U-251
SNB-19 = tested on: SNB-19
786-0 = tested on: 786-0
RPMI-8226 = tested on: RPMI-8226

Measured: GI50

CCOC(=O)CC/C(C)=N\n1c(Cc2ccc(Cl)cc2)n[nH]c1=O
inactive: SNB-75 > 100 µM | SK-MEL-28 > 100 µM | SR > 100 µM | DU-145 > 100 µM | HT-29 > 100 µM | MDA-MB-231 > 100 µM | NCI-H460 86.1 µM | Hs-578T > 100 µM | K562 > 100 µM | RXF 393 > 100 µM | PC-3 > 100 µM | MDA-MB-435 > 100 µM | LOX IMVI > 100 µM | SF-295 > 100 µM | MOLT-4 > 100 µM | HCC 2998 > 100 µM | U-251 > 100 µM | SNB-19 > 100 µM | 786-0 > 100 µM | RPMI-8226 > 100 µM

O=C1C(Cl)=C(Nc2ccc(S(=O)(=O)Nc3ccccn3)cc2)C(=O)c2ccccc21
inactive: SNB-75 7.91 µM | SK-MEL-28 16.3 µM | SR 3.03 µM | DU-145 7.91 µM | HT-29 7.5 µM | MDA-MB-231 6.89 µM | NCI-H460 4.53 µM | Hs-578T 13.1 µM | K562 2.23 µM | RXF 393 7.35 µM | PC-3 12.8 µM | MDA-MB-435 6.55 µM | LOX IMVI 1.78 µM | SF-295 15.3 µM | MOLT-4 3.61 µM | HCC 2998 12.2 µM | U-251 5.6 µM | SNB-19 16.4 µM | 786-0 8.22 µM | RPMI-8226 3.52 µM

C=C(C(=O)OC)N1C(=O)CC(C)C1=O (stereo not given)
inactive: SNB-75 17 µM | SK-MEL-28 9.55 µM | SR 2.59 µM | DU-145 15.8 µM | HT-29 10.7 µM | MDA-MB-231 17.6 µM | NCI-H460 18.1 µM | Hs-578T 24.3 µM | K562 2.87 µM | RXF 393 9.71 µM | PC-3 16.1 µM | MDA-MB-435 16.9 µM | LOX IMVI 7.14 µM | SF-295 29.1 µM | MOLT-4 3.33 µM | HCC 2998 16.1 µM | U-251 17.4 µM | SNB-19 21.4 µM | 786-0 10.7 µM | RPMI-8226 4.91 µM

CC1=C(C(=O)Nc2ccccc2)C(c2ccc(C)o2)C(C#N)=C(SCc2ccccc2)N1 (stereo not given)
inactive: SNB-75 > 100 µM | SK-MEL-28 > 100 µM | SR 4.75 µM | DU-145 > 100 µM | HT-29 34.9 µM | MDA-MB-231 > 100 µM | NCI-H460 > 100 µM | Hs-578T > 87.3 µM | K562 14.4 µM | RXF 393 > 37.6 µM | PC-3 > 55.8 µM | MDA-MB-435 4.58 µM | LOX IMVI > 100 µM | SF-295 96.2 µM | MOLT-4 7.55 µM | HCC 2998 > 100 µM | U-251 > 100 µM | SNB-19 > 100 µM | 786-0 > 100 µM | RPMI-8226 25.1 µM

CCC/C(Cl)=N\OC(=O)Nc1ccc(F)cc1
inactive: SNB-75 > 42.7 µM | SK-MEL-28 18.5 µM | SR 2.18 µM | DU-145 17 µM | HT-29 28.3 µM | MDA-MB-231 17.9 µM | NCI-H460 > 100 µM | Hs-578T 41.5 µM | K562 1.89 µM | RXF 393 18.4 µM | PC-3 17.3 µM | MDA-MB-435 16.5 µM | LOX IMVI 4.15 µM | SF-295 > 100 µM | MOLT-4 2.47 µM | HCC 2998 17.6 µM | U-251 18.2 µM | SNB-19 19.2 µM | 786-0 6.5 µM | RPMI-8226 6.01 µM

CCCCCCCCCCCCCCCCOP(=O)(O)OCC(NC(C)=O)C(=O)O (stereo not given)
inactive: SNB-75 20 µM | SK-MEL-28 > 100 µM | SR 73.8 µM | DU-145 > 100 µM | HT-29 > 100 µM | MDA-MB-231 22.9 µM | NCI-H460 39.1 µM | Hs-578T 27.9 µM | K562 > 100 µM | RXF 393 21.7 µM | PC-3 18 µM | MDA-MB-435 35.4 µM | LOX IMVI > 100 µM | SF-295 20.4 µM | MOLT-4 24.2 µM | HCC 2998 > 100 µM | U-251 20 µM | SNB-19 18.7 µM | 786-0 73.3 µM | RPMI-8226 41.7 µM
